Patent US10098883B2, “(Aza)pyridopyrazolopyrimidinones and indazolopyrimidinones and their use” (BAYER PHARMA AKTIENGESELLSCHAFT, priority 2013, dated 2018)
Counter-ions that a name gives are not always drawn.

system: clot lysis (fibrinolysis) in human citrated plasma, tPA-induced; experiment: Plasma-based clot lysis assay (5%); assay type: biochemical; conditions: diluted human citrated plasma (platelet-poor, 5%), fibrinogen 3 μM, CaCl2 10 mM, tPA 0.2 nM, 37° C., OD 405 nm
Protocol: B-2. Plasma-based Clot Lysis Assay (5%)
The clot-lysis test system configures the kinetics of clot formation and degradation in vitro and allows quantifying modulation of the process by selected test compounds.
The test compounds were dissolved in 1% acetic acid and further complemented with an equal volume of DMSO. The resulting stock solutions were serially diluted in 0.5% acetic acid/50% DMSO. 1 μL aliquots of these solutions were placed into 384 well microplates (Greiner, black, transparent bottom), followed by 30 μL of diluted human citrated plasma (platelet-poor, final concentration: 5%; supplemented with fibrinogen, final concentration: 3 μM; dilution buffer: 20 mM HEPES, 150 mM NaCl, 0.01% Brij (pH 7)). The reactions were started by addition of […] of CaCl2 (final concentration: 10 mM), and tPA (tissue plasminogen activator, final concentration: 0.2 nM) in dilution buffer, followed by an additional volume of 20 μL dilution buffer for improved mixing. The reactions were incubated at 37° C. Clot formation and degradation was monitored spectrophotometrically by kinetic optical density measurements at 405 nm. IC50 values were determined by comparing the resulting time courses with the time course of a blank control reaction.

| Compound | IC50 |
| --- | --- |
| O=c1cc(C2CCNCC2)n2nc3ccccc3c2[nH]1 [Example 1, 4-(Piperidin-4-yl)pyrimido[1,2-b]indazol-2(1H)-one hydrochloride] | 51 nM |
| O=c1cc(C2CCNCC2)n2nc3cccc(C(F)(F)F)c3c2[nH]1 [Example 12, 4-(Piperidin-4-yl)-10-(trifluoromethyl)pyrimido[1,2-b]indazol-2(1H)-one hydrochloride] | 32 nM |
| O=c1cc(C2CCNCC2)n2nc3cc(C(F)(F)F)ccc3c2[nH]1 [Example 11, 4-(Piperidin-4-yl)-8-(trifluoromethyl)pyrimido[1,2-b]indazol-2(1H)-one hydrochloride] | 26 nM |
| O=c1cc(C2CCNCC2)n2nc3c(Cl)cccc3c2[nH]1 [Example 22, 7-Chloro-4-(piperidin-4-yl)pyrimido[1,2-b]indazol-2(1H)-one hydrochloride] | 26 nM |
| CCOc1cccc2nn3c(C4CCNCC4)cc(=O)[nH]c3c12 [Example 26, 10-Ethoxy-4-(piperidin-4-yl)pyrimido[1,2-b]indazol-2(1H)-one hydrochloride] | 29 nM |
| O=c1cc(C2CCNCC2)n2nc3nc(-c4ccccc4)ccc3c2[nH]1 [Example 44, 8-Phenyl-4-(piperidin-4-yl)pyrido[2′,3′:3,4]pyrazolo[1,5-a]pyrimidin-2(1H)-one hydrochloride] | 48 nM |
| Nc1ccc2c(c1)nn1c(C3CCNCC3)cc(=O)[nH]c21 [Example 16, 8-Amino-4-(piperidin-4-yl)pyrimido[1,2-b]indazol-2(1H)-one hydrochloride] | 34 nM |
| O=c1cc(C2CCNCC2)n2nc3nccc(-c4ccccc4)c3c2[nH]1 [Example 46, 10-Phenyl-4-(piperidin-4-yl)pyrido[2′,3′:3,4]pyrazolo[1,5-a]pyrimidin-2(1H)-one hydrochloride] | 17 nM |
| COc1cccc2nn3c(C4CCNCC4)cc(=O)[nH]c3c12 [Example 8, 10-Methoxy-4-(piperidin-4-yl)pyrimido[1,2-b]indazol-2(1H)-one hydrochloride] | 46 nM |
| O=c1cc(C2CCNCC2)n2nc3c(Br)cncc3c2[nH]1 [Example 27, 7-Bromo-4-(piperidin-4-yl)pyrido[4′,3′:3,4]pyrazolo[1,5-a]pyrimidin-2(1H)-one hydrochloride] | 13 nM |
| O=c1cc(C2CCNCC2)n2nc3c(C(F)(F)F)cccc3c2[nH]1 [Example 30, 4-(Piperidin-4-yl)-7-(trifluoromethyl)pyrimido[1,2-b]indazol-2(1H)-one hydrochloride] | 46 nM |
| Cc1cc(C)c2c(n1)nn1c(C3CCNCC3)cc(=O)[nH]c21 [Example 32, 8,10-Dimethyl-4-(piperidin-4-yl)pyrido[2′,3′:3,4]pyrazolo[1,5-a]pyrimidin-2(1H)-one hydrochloride] | 210 nM |
| O=c1cc(C2CCNCC2)n2nc3ccc(F)cc3c2[nH]1 [Example 7, 9-Fluoro-4-(piperidin-4-yl)pyrimido[1,2-b]indazol-2(1H)-one hydrochloride] | 95 nM |
| O=c1cc(C2CCNCC2)n2nc3cccc(I)c3c2[nH]1 [Example 20, 10-Iodo-4-(piperidin-4-yl)pyrimido[1,2-b]indazol-2(1H)-one hydrochloride] | 22 nM |
| O=c1cc(C2CCNCC2)n2nc3nccnc3c2[nH]1 [Example 38, 7-(Piperidin-4-yl)pyrazino[2′,3′:3,4]pyrazolo[1,5-a]pyrimidin-9(10H)-one hydrochloride] | 60 nM |
| O=c1cc(C2CCNCC2)n2nc3cc(Cl)ccc3c2[nH]1 [Example 39, 8-Chloro-4-(piperidin-4-yl)pyrimido[1,2-b]indazol-2(1H)-one hydrochloride] | 24 nM |
| Cc1ccc2nn3c(C4CCNCC4)cc(=O)[nH]c3c2c1 [Example 15, 9-Methyl-4-(piperidin-4-yl)pyrimido[1,2-b]indazol-2(1H)-one hydrochloride] | 48 nM |
| O=c1cc(C2CCNCC2)n2nc3ncc(-c4ccccc4)cc3c2[nH]1 [Example 45, 9-Phenyl-4-(piperidin-4-yl)pyrido[2′,3′:3,4]pyrazolo[1,5-a]pyrimidin-2(1H)-one hydrochloride] | 37 nM |

Continued, values first:

| IC50 | Compound |
| --- | --- |
| 110 nM | O=c1cc(C2CCNCC2)n2nc3cccc(-c4cnc[nH]4)c3c2[nH]1 [Example 103, 10-(1H-imidazol-5-yl)-4-(piperidin-4-yl)pyrimido[1,2-b]indazol-2(1H)-one hydrochloride] |
| 35 nM | CC(C)Oc1ccccc1-c1cccc2nn3c(C4CCNCC4)cc(=O)[nH]c3c12 [Example 94, 10-(2-Isopropoxyphenyl)-4-(piperidin-4-yl)pyrimido[1,2-b]indazol-2(1H)-one hydrochloride] |
| 26 nM | O=c1cc(C2CCNCC2)n2nc3cccc(-n4cccn4)c3c2[nH]1 [Example 96, 4-(Piperidin-4-yl)-10-(1H-pyrazol-1-yl)pyrimido[1,2-b]indazol-2(1H)-one hydrochloride] |
| 15 nM | COc1ccc(-c2cccc3nn4c(C5CCNCC5)cc(=O)[nH]c4c23)cc1 [Example 54, 10-(4-Methoxyphenyl)-4-(piperidin-4-yl)pyrimido[1,2-b]indazol-2(1H)-one hydrochloride] |
| 36 nM | O=c1cc(C2CCNCC2)n2nc3ccc(I)cc3c2[nH]1 [Example 48, 9-Iodo-4-(piperidin-4-yl)pyrimido[1,2-b]indazol-2(1H)-one hydrochloride] |
| 23 nM | O=c1cc(C2CCNCC2)n2nc3cccc(-c4ccsc4)c3c2[nH]1 [Example 84, 4-(Piperidin-4-yl)-10-(3-thienyl)pyrimido[1,2-b]indazol-2(1H)-one hydrochloride] |
| 15 nM | Cn1nccc1-c1cccc2nn3c(C4CCNCC4)cc(=O)[nH]c3c12 [Example 86, 10-(1-Methyl-1H-pyrazol-5-yl)-4-(piperidin-4-yl)pyrimido[1,2-b]indazol-2(1H)-one hydrochloride] |
| 29 nM | O=c1cc(C2CCNCC2)n2nc3cccc(-n4ccnn4)c3c2[nH]1 [Example 99, 4-(Piperidin-4-yl)-10-(1H-1,2,3-triazol-1-yl)pyrimido[1,2-b]indazol-2(1H)-one hydrochloride] |
| 420 nM | O=C(O)c1cccc2nn3c(C4CCNCC4)cc(=O)[nH]c3c12 [Example 106, 2-oxo-4-(piperidin-4-yl)-1,2-dihydropyrimido[1,2-b]indazole-10-carboxylic acid hydrochloride] |
| 16 nM | O=c1cc(C2CCNCC2)n2nc3cccc(-c4ccncc4)c3c2[nH]1 [Example 59, 4-(Piperidin-4-yl)-10-(pyridin-4-yl)pyrimido[1,2-b]indazol-2(1H)-one hydrochloride] |
| 19 nM | O=c1cc(C2CCNCC2)n2nc3cccc(-c4ccccc4Cl)c3c2[nH]1 [Example 64, 10-(2-Chlorophenyl)-4-(piperidin-4-yl)pyrimido[1,2-b]indazol-2(1H)-one hydrochloride] |
| 18 nM | Cc1ccccc1-c1cccc2nn3c(C4CCNCC4)cc(=O)[nH]c3c12 [Example 85, 10-(2-Methylphenyl)-4-(piperidin-4-yl)pyrimido[1,2-b]indazol-2(1H)-one hydrochloride] |
| 36 nM | O=c1cc(C2CCNCC2)n2nc3ccncc3c2[nH]1 [Example 49, 4-(Piperidin-4-yl)pyrido[4′,3′:3,4]pyrazolo[1,5-a]pyrimidin-2(1H)-one] |
| 27 nM | O=c1cc(C2CCNCC2)n2nc3cccc(-n4nccn4)c3c2[nH]1 [Example 98, 4-(Piperidin-4-yl)-10-(2H-1,2,3-triazol-2-yl)pyrimido[1,2-b]indazol-2(1H)-one hydrochloride] |
| 25 nM | Cn1cc(-c2cccc3nn4c(C5CCNCC5)cc(=O)[nH]c4c23)cn1 [Example 87, 10-(1-Methyl-1H-pyrazol-4-yl)-4-(piperidin-4-yl)pyrimido[1,2-b]indazol-2(1H)-one hydrochloride] |
| 27 nM | O=c1cc(C2CCNCC2)n2nc3ccc(F)c(-c4ccccc4F)c3c2[nH]1 [Example 92, 9-Fluoro-10-(2-fluorophenyl)-4-(piperidin-4-yl)pyrimido[1,2-b]indazol-2(1H)-one hydrochloride] |
| 15 nM | O=c1cc(C2CCNCC2)n2nc3cccc(-c4cccnc4)c3c2[nH]1 [Example 58, 4-(Piperidin-4-yl)-10-(pyridin-3-yl)pyrimido[1,2-b]indazol-2(1H)-one hydrochloride] |
| 15 nM | Cc1ccc2nn3c(C4CCNCC4)cc(=O)[nH]c3c2c1Br [Example 74, 10-Bromo-9-methyl-4-(piperidin-4-yl)pyrimido[1,2-b]indazol-2(1H)-one hydrochloride] |
| 13 nM | O=c1cc(C2CCNCC2)n2nc3cccc(-c4ccccc4C(F)(F)F)c3c2[nH]1 [Example 67, 4-(Piperidin-4-yl)-10-[2-(trifluoromethyl)phenyl]pyrimido[1,2-b]indazol-2(1H)-one hydrochloride] |
| 24 nM | Cc1ccnc2nn3c(C4CCNCC4)cc(=O)[nH]c3c12 [Example 47, 10-methyl-4-(piperidin-4-yl)pyrido[2′,3′:3,4]pyrazolo[1,5-a]pyrimidin-2(1H)-one hydrochloride] |

same assay, conditions: diluted human citrated plasma (platelet-poor, 5%), fibrinogen 3 μM, CaCl2 10 mM, tPA 0.2 nM, 37° C., OD 405 nm; hydrochloride

| IC50 | Compound |
| --- | --- |
| 10 nM | N#Cc1cccc2nn3c(C4CCNCC4)cc(=O)[nH]c3c12 [Example 53, 2-Oxo-4-(piperidin-4-yl)-1,2-dihydropyrimido[1,2-b]indazole-10-carbonitrile hydrochloride] |
